In brackets after ≈: the same amount, converted by molar mass. Entries after “also recorded” stand apart in the source; their conditions may differ. Where two headings read alike, the source gives them in different places.
How the values were obtained:
B. cereus ATCC 9634 = test: Minimum inhibitory concentration, broth dilution method; format: cell-based; details: for MIC: Bacillus cereus, ATCC9634, B. cereus ATCC 9634
Source text: (§1) The minimum inhibitory concentration of the present antibiotics as determined by the broth dilution method are shown in Table 1.

[1] = system: B. megarterium NRRL B-938; test: as above; format: cell-based
Source text: as §1

B. subtilis ATCC 6633 = test: as above; format: cell-based; details: for Minimum inhibitory concentration: B. subtilis ATCC 6633
Source text: as §1

[2] = system: Candida albicans IAM 4905; test: as above; format: cell-based; details: for MIC: IAM4905, Candida albicans IAM 4905
Source text: as §1

Candida tropicalis = test: as above; format: cell-based
Source text: as §1

Coryne. bovis 1810 = test: as above; format: cell-based
Source text: as §1

Micrococcus flavs = test: as above; format: cell-based
Source text: as §1

[3] = system: Mycobacterium smegmatis ATCC 607; test: as above; format: cell-based; details: for MIC: Mycolicibacterium smegmatis, ATCC607, Mycobacterium smegmatis ATCC 607
Source text: as §1

Proteus morganii = test: as above; format: cell-based; details: for MIC: Morganella morganii
Source text: as §1

[4] = system: Ps. fluorescens NIHJB-254; test: as above; format: cell-based; details: for MIC: Pseudomonas fluorescens, NIHJB254, Ps. fluorescens NIHJB-254
Source text: as §1

Sarcina lutea ATCC 9341 = test: as above; format: cell-based; details: for Minimum inhibitory concentration: Sarcina lutea ATCC 9341
Source text: as §1

Staph. aureus FDA209P = test: as above; format: cell-based; details: for MIC: Staphylococcus aureus, FDA209P
Source text: as §1

Staph. aureus Smith = test: as above; format: cell-based; details: for MIC: Staphylococcus aureus
Source text: as §1

mouse L-1210 leukemia = test: Prolongation of survival time of mice inoculated with L-1210 leukemia; format: in vivo, BDF1 mice; details: for Prolongation of the survival time T/C: BDF1 mice, 1 × 10^6 L-1210 cells i.p., day 30; for Inhibitory effect on mouse L-1210 leukemia: in words
Source text: (§2) For example, BDF1 mice were inoculated intraperitoneally with 1 × 10^6 L-1210 cells/mouse and 24 hrs. after inoculation the drug was intraperitoneally injected once daily for 10 days consecutively. On day 30, the % of prolongation of the survival time to control was as follows: […]

[5] = Acute toxicity, LD50 upon intraperitoneal injection; format: in vivo
Source text: The LD50 values upon intraperitoneal injection of the
antibiotics of the present invention are shown in the […]

Solubility = format: physicochemical
gram-positive bacteria = test: Antimicrobial activity against gram-positive bacteria; format: cell-based
Source text: as §1

animal tumors = test: Inhibition of growth of animal tumors; format: in vivo; details: experimental animal tests
Source text: as §2

[6] = Toxicity in experimental animal tests; format: in vivo
[7] = 0.06 mg./kg./day i.p. once daily for 10 days
[8] = 0.125 mg./kg./day i.p. once daily for 10 days
[9] = 0.25 mg./kg./day i.p. once daily for 10 days
[10] = 0.5 mg./kg./day i.p. once daily for 10 days
[11] = 1 mg./kg./day i.p. once daily for 10 days
[12] = in acidic water, DMSO, methylcellosolve, methanol, ethanol, n-propanol, n-butanol, ethyl acetate, butyl acetate, acetone, methyl ethyl ketone, methylene chloride and chloroform
[13] = in n-hexane, cyclohexane and petroleum ether

Row | Compound | Minimum inhibitory concentration [1] [µg/mL] | Minimum inhibitory concentration (B. subtilis ATCC 6633) [µg/mL] | Minimum inhibitory concentration (Coryne. bovis 1810) [µg/mL] | Minimum inhibitory concentration (Sarcina lutea ATCC 9341) [µg/mL] | Prolongation of the survival time T/C (mouse L-1210 leukemia; [7]) [%] | Prolongation of the survival time T/C (mouse L-1210 leukemia; [8]) [%] | Prolongation of the survival time T/C (mouse L-1210 leukemia; [9]) [%] | Prolongation of the survival time T/C (mouse L-1210 leukemia; [10]) [%] | Prolongation of the survival time T/C (mouse L-1210 leukemia; [11]) [%] | Inhibitory effect on mouse L-1210 leukemia (mouse L-1210 leukemia) | LD50 [5] [mg/kg] | Solubility (Solubility; [12]) | Solubility (Solubility; [13]) | Solubility (Solubility; in water) | Toxicity [6] | MIC (B. cereus ATCC 9634) [µg/mL] | MIC (Candida tropicalis) [µg/mL] | MIC [3] [µg/mL] | MIC (Proteus morganii) [µg/mL] | MIC [4] [µg/mL] | further results
1 | COc1cccc2c1C(=O)c1c(O)c3c(c(O)c1C2=O)CC(O)(C(C)=O)CC3OC1CC(N)C(OC(CC(C)O)OC(C)CO)C(C)O1 (stereo not drawn) [BM-A2] | 6.25 (≈ 9.28 µM) | 3.12 (≈ 4.63 µM) | 6.25 (≈ 9.28 µM) | 3.12 (≈ 4.63 µM) | 141 | 151 | 163 | 173 | 167 | marked inhibitory effects | 15 to 20 | Soluble | Insoluble | Insoluble | low toxicity |  |  |  |  |  | Minimum inhibitory concentration (B. cereus ATCC 9634; B. cereus ATCC 9634): 3.12 µg/mL (≈ 4.63 µM); Minimum inhibitory concentration ([2]; Candida albicans IAM 4905): 100 µg/mL (≈ 148 µM); Minimum inhibitory concentration (Candida tropicalis): 100 µg/mL (≈ 148 µM); Minimum inhibitory concentration (Micrococcus flavs; Micrococcus flavs): 1.56 µg/mL (≈ 2.32 µM); Minimum inhibitory concentration ([3]; Mycobacterium smegmatis ATCC 607): 12.5 µg/mL (≈ 18.6 µM); Minimum inhibitory concentration (Proteus morganii): > 100 µg/mL; Minimum inhibitory concentration ([4]; Ps. fluorescens NIHJB-254): 100 µg/mL (≈ 148 µM); Minimum inhibitory concentration (Staph. aureus FDA209P): 3.12 µg/mL (≈ 4.63 µM); Minimum inhibitory concentration (Staph. aureus Smith): 1.56 µg/mL (≈ 2.32 µM); Antimicrobial activity (gram-positive bacteria; listed as Baumycin A2): inhibit the growth of gram-positive bacteria; also recorded: possess antimicrobial activity, especially against gram-positive bacteria; Inhibition of growth of animal tumors / antitumor activity (animal tumors; listed as Baumycin A2): inhibit the growth of various animal tumors; also recorded: marked antitumor activity; also recorded: marked inhibitory action against animal malignant tumors, especially ascitic and solid tumors
2 | COc1cccc2c1C(=O)c1c(O)c3c(c(O)c1C2=O)CC(O)(C(C)=O)CC3OC1CC(N)C(OC(CC(C)O)OC(C)C(=O)O)C(C)O1 (stereo not drawn) [BM-B1] |  |  |  |  |  | 93 | 99 | 99 | 105 | marked inhibitory effects |  |  |  |  | low toxicity | 100 (≈ 145 µM) | 100 (≈ 145 µM) | 100 (≈ 145 µM) | > 100 | 100 (≈ 145 µM) | MIC [1]: 100 µg/mL (≈ 145 µM); MIC (B. subtilis ATCC 6633; Bacillus subtilis, ATCC6633, B. subtilis ATCC 6633): 100 µg/mL (≈ 145 µM); MIC ([2]; Candida albicans): 100 µg/mL (≈ 145 µM); MIC (Coryne. bovis 1810; Corynebacterium bovis): 50 µg/mL (≈ 72.7 µM); MIC (Micrococcus flavs; Micrococcus flavs, read-out: Minimum inhibitory concentration): 50 µg/mL (≈ 72.7 µM); MIC (Sarcina lutea ATCC 9341; Micrococcus luteus, ATCC9341, Sarcina lutea ATCC 9341): 50 µg/mL (≈ 72.7 µM); MIC (Staph. aureus FDA209P): 50 µg/mL (≈ 72.7 µM); MIC (Staph. aureus Smith): 50 µg/mL (≈ 72.7 µM); Prolongation of the survival time T/C (mouse L-1210 leukemia; 2 mg./kg./day i.p. once daily for 10 days): 117%; Prolongation of the survival time T/C (mouse L-1210 leukemia; 4 mg./kg./day i.p. once daily for 10 days): 136%; Prolongation of the survival time T/C (mouse L-1210 leukemia; 6 mg./kg./day i.p. once daily for 10 days): 165%; Prolongation of the survival time T/C (mouse L-1210 leukemia; 8 mg./kg./day i.p. once daily for 10 days): 147%; LD50 ([5]; in vivo, ip, read-out: LD50): 40 to 60 mg/kg; Solubility (Solubility; in acidic water, methyl cellosolve, methanol, ethanol, n-propanol and n-butanol): Soluble; Solubility (Solubility; in ethyl acetate, acetone, methylene chloride, chloroform, carbon tetrachloride, benzene, toluene, ethyl ether and n-hexane): Insoluble; Solubility (Solubility; in water, listed as Baumycin B1): Insoluble; Antimicrobial activity (gram-positive bacteria; listed as Baumycin B1): inhibit the growth of gram-positive bacteria; also recorded: possess antimicrobial activity, especially against gram-positive bacteria; Inhibition of growth of animal tumors / antitumor activity (animal tumors; listed as Baumycin B1): inhibit the growth of various animal tumors; also recorded: marked antitumor activity; also recorded: marked inhibitory action against animal malignant tumors, especially ascitic and solid tumors
3 | COc1cccc2c1C(=O)c1c(O)c3c(c(O)c1C2=O)CC(O)(C(C)=O)CC3OC1CC(N)C(OC(CC(C)O)OC(C)CO)C(C)O1 (stereo not drawn) [BM-A1] | 1.56 (≈ 2.32 µM) | 0.78 (≈ 1.16 µM) | 1.56 (≈ 2.32 µM) | 0.78 (≈ 1.16 µM) | > 300 |  |  |  |  | marked inhibitory effects | 1.5 to 2.5 | Soluble | Insoluble | Insoluble | low toxicity | 1.56 (≈ 2.32 µM) | 100 (≈ 148 µM) | 6.25 (≈ 9.28 µM) | > 100 | > 100 | MIC [2]: 100 µg/mL (≈ 148 µM); MIC (Micrococcus flavs; Micrococcus, read-out: Minimum inhibitory concentration, Micrococcus flavs): 0.78 µg/mL (≈ 1.16 µM); MIC (Staph. aureus FDA209P): 1.56 µg/mL (≈ 2.32 µM); MIC (Staph. aureus Smith): 0.78 µg/mL (≈ 1.16 µM); Prolongation of the survival time T/C (mouse L-1210 leukemia; 0.004 mg./kg./day i.p. once daily for 10 days): 131%; Prolongation of the survival time T/C (mouse L-1210 leukemia; 0.008 mg./kg./day i.p. once daily for 10 days): 131%; Prolongation of the survival time T/C (mouse L-1210 leukemia; 0.015 mg./kg./day i.p. once daily for 10 days): 155%; Prolongation of the survival time T/C (mouse L-1210 leukemia; 0.03 mg./kg./day i.p. once daily for 10 days): 187%; Antimicrobial activity (gram-positive bacteria; listed as Baumycin A1): inhibit the growth of gram-positive bacteria; also recorded: possess antimicrobial activity, especially against gram-positive bacteria; Inhibition of growth of animal tumors / antitumor activity (animal tumors; listed as Baumycin A1): inhibit the growth of various animal tumors; also recorded: marked antitumor activity; also recorded: marked inhibitory action against animal malignant tumors, especially ascitic and solid tumors

Reference: patent US4147778A, “Antibiotic baumycin complex and components thereof” (Zaidan Hojin Biseibutsu Kagaku Kenkyu Kai, priority 1976, dated 1979)
